Data as given in patent US11534443B2, “Quinazoline compounds, preparation method, use, and pharmaceutical composition thereof” (INSTITUTE OF MATERIA MEDICA, CHINESE ACADEMY OF MEDICAL …, priority 2016, dated 2022).

Legend:
PI3Kα = PI3Kα (Homo sapiens (Human), UniProt P42336); test: Biochemical evaluation of activity of PI3Kα (Kinase-Glo luminescence kinase assay); conditions: 25 μM ATP, 50 μM PIP2, 1 h at room temperature
Summary of the method: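 Inhibition of PI3Kα was measured in vitro with a luciferase-based Kinase-Glo™ luminescence readout in white 384-well plates at room temperature. Compound diluted 25-fold in buffer (50 mM Hepes pH 7.5, 3 mM MgCl2, 100 mM NaCl, 1 mM EGTA, 0.03% CHAPS, 2 mM DTT) was mixed with enzyme, then PIP2/ATP substrate was added. Percent inhibition used enzyme-free and DMSO controls; IC50 was fitted with XLfit.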

[1] = tested on: human lung cancer cell NCI-H460; test: Tumor cell viability by MTT assay; assay type: cell-based; conditions: Homo sapiens, NCI-H460, 96 h
Summary of the method: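 NCI-H460 cells exposed to six to nine compound concentrations (DMSO below 0.2%, triplicate wells) for 96 hours at 37° C, 5% CO2. MTT added for 4 hours, formazan dissolved in DMSO and OD read at 570 nm against DMSO-treated controls.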

[2] = tested on: human lung cancer NCI-H460 subcutaneous xenografts; test: Xenograft efficacy in nude mice, NCI-H460; assay type: in vivo; conditions: for Growth inhibition: NCI-H460 xenograft, 16 days of dosing
Method: (§1) Human lung cancer NCI-H460 cells were collected under aseptic conditions, and the cell density was adjusted to 1×10^6 cells/mL with sterile saline, 0.2 mL of which was implanted into the back of the nude mice. When the tumor grew to a diameter of about 1 cm, it was removed under septic condition and cut into pieces of 1 mm×1 mm which was implanted into the back of the nude mice. When the tumor grew to 100-300 mm^3 after 6 days, the animals were randomly divided into groups and administration was started (marked as Day 1). The test compound was administered orally every day. Body weight was measured twice a week and the length and width of the tumor were measured with a vernier caliper. After 16 days of dosing, the nude mice were sacrificed by cervical dislocation and the tumor issues were exfoliated, weighed and photographed. Finally, the tumor inhibitory rate was calculated. The antitumor efficacy was evaluated by the tumor inhibitory rate. The results were shown in Table 3, Table 4, FIG. 1 and FIG. 2.
(§2) The tumor volume was calculated as follows: Tumor volume=(a×b^2)/2, where a and b represented the length and width of the tumor.
(§3) The percentage of tumor growth inhibition was calculated as follows: Tumor growth inhibition (%)=(1−T/C)×100, where T was the final volume of the tumor in the test compound group and C was the final volume of the tumor in the solvent control group.

[3] = tested on: human gastric cancer HGC-27 subcutaneous xenografts; test: Xenograft efficacy in nude mice, HGC-27; assay type: in vivo
Method: as §1, with “gastric” for “lung”, “HGC-27” for “NCI-H460”, “When the tumor grew to a diameter of about 1 cm, it was removed under septic condition and cut into pieces of 1 mm×1 mm which was implanted into the back of the nude mice.” left out, “0).” for “1).”, “20” for “16”, “rate.” for “rate. The results were shown in Table 3, Table 4, FIG. 1 and FIG. 2.”
as §2, §3
The percentage of tumor regression was calculated by 100×(final tumor volume-initial tumor volume)/initial tumor volume.

Sequence of PI3Kα (P42336 whole entry): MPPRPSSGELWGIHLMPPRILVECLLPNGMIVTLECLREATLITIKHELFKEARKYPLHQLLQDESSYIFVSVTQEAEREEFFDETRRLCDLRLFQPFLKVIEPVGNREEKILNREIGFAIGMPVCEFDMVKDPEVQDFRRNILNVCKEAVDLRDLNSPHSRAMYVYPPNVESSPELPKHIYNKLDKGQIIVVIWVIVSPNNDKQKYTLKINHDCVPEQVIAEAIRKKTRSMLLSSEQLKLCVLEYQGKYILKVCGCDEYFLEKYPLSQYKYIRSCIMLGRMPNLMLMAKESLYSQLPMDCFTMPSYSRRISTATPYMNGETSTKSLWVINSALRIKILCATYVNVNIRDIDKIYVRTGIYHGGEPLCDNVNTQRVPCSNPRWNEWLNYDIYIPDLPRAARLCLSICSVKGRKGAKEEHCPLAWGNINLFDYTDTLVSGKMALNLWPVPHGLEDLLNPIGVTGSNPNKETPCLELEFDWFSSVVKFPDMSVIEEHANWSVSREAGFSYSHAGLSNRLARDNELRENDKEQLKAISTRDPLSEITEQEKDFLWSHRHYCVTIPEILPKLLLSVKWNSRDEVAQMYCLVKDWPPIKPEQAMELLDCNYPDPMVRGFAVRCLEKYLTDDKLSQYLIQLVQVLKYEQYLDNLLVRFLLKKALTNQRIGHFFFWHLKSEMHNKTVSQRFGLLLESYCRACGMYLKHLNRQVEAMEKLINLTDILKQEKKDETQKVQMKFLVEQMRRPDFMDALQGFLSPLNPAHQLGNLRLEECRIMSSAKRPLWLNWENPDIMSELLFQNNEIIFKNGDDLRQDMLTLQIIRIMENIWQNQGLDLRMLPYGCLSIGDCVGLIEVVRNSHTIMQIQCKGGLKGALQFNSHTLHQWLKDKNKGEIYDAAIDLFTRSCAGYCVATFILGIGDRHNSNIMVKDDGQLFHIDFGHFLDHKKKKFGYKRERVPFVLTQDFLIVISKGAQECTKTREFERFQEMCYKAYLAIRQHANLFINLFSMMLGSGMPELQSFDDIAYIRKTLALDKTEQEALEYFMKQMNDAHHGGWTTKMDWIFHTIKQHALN
Sequence of PI3Kα (P27986 whole entry partner): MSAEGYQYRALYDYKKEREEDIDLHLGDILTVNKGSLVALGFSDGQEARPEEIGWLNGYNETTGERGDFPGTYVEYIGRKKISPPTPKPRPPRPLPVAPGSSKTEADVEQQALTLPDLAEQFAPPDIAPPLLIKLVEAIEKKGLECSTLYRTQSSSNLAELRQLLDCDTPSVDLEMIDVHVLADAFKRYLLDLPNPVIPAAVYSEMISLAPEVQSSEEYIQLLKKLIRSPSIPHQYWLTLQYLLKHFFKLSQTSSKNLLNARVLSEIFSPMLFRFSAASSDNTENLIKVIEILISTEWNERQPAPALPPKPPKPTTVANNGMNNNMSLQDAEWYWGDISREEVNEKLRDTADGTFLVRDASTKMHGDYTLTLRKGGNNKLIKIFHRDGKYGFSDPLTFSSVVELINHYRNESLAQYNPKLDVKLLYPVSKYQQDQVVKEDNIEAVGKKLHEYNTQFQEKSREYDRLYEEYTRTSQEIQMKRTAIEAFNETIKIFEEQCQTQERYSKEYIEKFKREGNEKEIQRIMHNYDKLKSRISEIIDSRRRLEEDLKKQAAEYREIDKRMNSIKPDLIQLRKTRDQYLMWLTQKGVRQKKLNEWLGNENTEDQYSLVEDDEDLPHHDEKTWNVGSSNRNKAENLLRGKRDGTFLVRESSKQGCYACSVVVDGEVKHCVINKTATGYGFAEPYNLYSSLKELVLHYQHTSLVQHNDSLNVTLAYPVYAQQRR

SMILES	IC50 (PI3Kα) [pM]	IC50 [1] [pM]	inhibitory effect against growth of NCI-H460 subcutaneous xenografts (in words) [2]	Growth inhibition ([2]; 1 mg/kg/day orally) [%]	Growth inhibition ([2]; 5 mg/kg/day orally) [%]	Growth inhibition ([2]; 10 mg/kg/day orally) [%]	Growth inhibition ([2]; 20 mg/kg/day orally) [%]	inhibitory effect on growth of HGC-27 subcutaneous xenografts (in words) [3]	Growth inhibition ([3]; HGC-27 xenograft, 5 mg/kg/day orally, 20 days of dosing) [%]	Regression ([3]; HGC-27 xenograft, 10 mg/kg/day orally, 20 days of dosing) [%]
COc1ncc(-c2cc(OC3CCOCC3)c3ncnc(C)c3c2)cc1NS(=O)(=O)c1ccc(F)cc1F [Example 44, N-(2-methoxy-5-(4-methyl-8-((tetrahydro-2H-pyran-4-yl)oxy)quinazolin-6-yl)pyridin-3-yl)-2,4-difluorobenzenesulfonamide]	650	29000	significant inhibitory effects	60.3						
COc1ncc(-c2cc(O[C@@H]3CCOC3)c3nc(N)nc(C)c3c2)cc1NS(=O)(=O)c1ccc(F)cc1F [Example 9, (R)—N-(5-(2-amino-4-methyl-8-((tetrahydrofuran-3-yl)oxy)quinazolin-6-yl)-2-methoxypyridin-3-yl)-2,4-difluorobenzenesulfonamide]	860	93000	significant inhibitory effects		39.2	56.3	77.0			
CNc1nc(C)c2cc(-c3cnc(OC)c(NS(=O)(=O)c4ccc(F)cc4F)c3)cc(O[C@@H]3CCOC3)c2n1 [Example 32, (R)—N-(2-methoxy-5-(4-methyl-2-(methylamino)-8-((tetrahydrofuran-3-yl)oxy)quinazolin-6-yl)pyridin-3-yl)-2,4-difluorobenzenesulfonamide]	820							significant inhibitory effect	76.9	70.5
